According to patent US7087619B2, “Method for the treatment of urinary incontinence” (Endo Pharmaceuticals, Inc., priority 1995, dated 2006):

Key:
[1] = literature report; cited from earlier work
[2] = tested on: female Sprague-Dawley rats; experiment: Non-stop transvesical cystometrogram in urethane-anesthetized rats (continuous cystometry); format: in vivo
Experimental: Ten female Sprague-Dawley rats having a mean weight of 263±19 g were anesthetized with urethane (1.2 g/k, sc.). A midline incision was performed to expose the bladder and a 23G catheter was inserted into the bladder dome for the measurement of intravesical pressure. A non-stop transvesical cystometrogram, as described in J. Pharmacological. Methods, 15, pp. 157-167 (1986), was used, at a filling rate of 0.216 ml/min. of saline, to access the filling and voiding characteristics of the bladder. Through the continuous cystometry method thus afforded, consecutive micturition could be recorded. Dextromethorphan was given at intravenous does of: 1.0, 3.0, 10, 30, 50 mg/kg after the initial baseline micturition sequence was reliably measured for approximately 12 min. From these recordings the absolute values in maximum pressure obtained and the frequency of micturition was measured. A dose response curve illustrating the effect of dextromethorphan on the absolute micturition pressures in the range of 1-50 mg/kg is given in FIG. 1. Data given are mean and SE.

Row | SMILES | frequency in micturition [1] | volume evoked micturition reflex ([2]; increasing intravenous doses 1.0-50 mg/kg, cystometrogram, anesthetized rats) | reduction in detrusor pressure ([2]; intravenous 10 mg/kg) [%] | frequency of micturition ([2]; intravenous 1-50 mg/kg, dose response, FIG. 2) | reduction in detrusor pressure ([2]; intravenous dose level of 3 mg/kg) | effect on detrusor pressure at high doses (initial increase before suppression) ([2]; intravenous doses higher than 10 mg/kg) | volume evoked micturition contractions ([2]; intravenous doses in the range of 10-30 mg/kg)
1 | C[C@]12N[C@H](Cc3ccccc31)c1ccccc12 [MK-801] | increase in frequency in micturition |  |  |  |  |  | 
2 | COc1ccc2c(c1)[C@@]13CCCC[C@H]1[C@@H](C2)N(C)CC3 [dextromethorphan, (+)-3-methoxy-N-methylmorphinan] |  | suppressed in a dose sensitive manner | 50 | decrements gradually with respect to dose | significant sustained reduction | bimodal, producing an initial increase in detrusor pressure before suppression | almost totally suppressed
